# Laboratory results from US10827753B2, “Compositions and methods for controlling nematodes” (Monsanto Technology LLC, priority 2007, dated 2020).
# Marks after values point to notes of the source that are not given here.
# Experiments:
# mice = details: cited from earlier work
# [1] = system: soybean cyst nematode (SCN); test: SCN greenhouse sand assay on soybean plants; type: in vivo, Heterodera glycines
# Excerpt: Soybeans seeds are planted in 100% sand in two inch square plastic pots.
# Chemical treatment is done when the soybeans show the first trifoliate beginning to emerge about 10 to 12 days after planting. At least four hours after chemical application the nematode soybean cyst nematode (SCN) eggs are applied and 28 days after the egg inoculation the test is harvested.
# One milligram of chemistry per four pots is equal to one kilogram per hectare of chemical. A standard test uses four replications. For rates above 2 kg/ha, the desired amount of chemical is weighed into a 30 ml vial (example: 8 kg/ha rate=8 mg chemical in 30 ml vial). The chemical is dissolved in 2 ml of appropriate solvent, generally acetone. For rates below 2 kg/ha, 2 milligrams of chemistry is weighed into the vial and dissolved in 2 ml of the solvent. The appropriate amount of chemical concentrate is then pipetted into a separate 30 ml vial and solvent is added to bring the volume to 2 ml (example 0.5 kg/ha=0.5 ml of concentrate+1.5 ml solvent). Each dissolved concentrate is then brought to a total of 20 milliliters using 0.05% Triton X 100 surfactant solution.
# Pots to be treated are moist but not saturated. To each of four pots, five milliliters of the appropriate chemical solution is pipetted to the media surface making sure to avoid contact with the base of the plant. Immediately following chemical application, using a mist nozzle, the pot surface is wetted sufficiently to saturate the pot watering in the chemistry. The chemical application is done in the morning.
# Nematode eggs, either SCN or RKN, are added to distilled water to create a concentration of 1000 vermiform eggs […]. At least four hours after chemical treatment the eggs are applied to the treated pots plus non-treated check plants. A small hole about 1 cm deep is punched into the pot surface. One milliliter of the nematode egg slurry is pipetted into the hole. Immediately afterwards the hole is gently covered. Watering of the test plants is then restricted to only water as needed to prevent wilt for a period of 24 hours. After the 24 hour restricted watering, normal sub-irrigation watering is done for the duration of the test.
# Meloidogyne incognita = test: Fall nematicidal field testing on squash microplots; type: in vivo; details: for control of root galling compared with oxamyl at an equivalent rate: 2 kg/ha
# Excerpt: The test site was located at 3511 Highway F in New Melle, Mo., Saint Charles county. The soil was a native prairie/pasture covering silty clay loam soil. Holes were dug using a Bobcat 763 skid loader with a 12-inch auger to a depth of 18 inches. Total volume of each hole was about 1.2 cubic feet. Six cubic yards of topsoil and 9 tons of river sand were purchased from Dardenne Farms Topsoil. Mixing to a ratio of 4 volumes sand to 1 volume soil was accomplished using a trailer-mounted 9 cubic foot concrete mixer. Holes were filled and then re-filled 5 days later after settling. The mixture was 92.5% sand, 2.5% silt, and 5% clay. Organic matter was 0.2% and pH was 6.8.
# Treatments were arranged in a block design with the blocks laid out perpendicular to the primary slope and parallel to secondary slope. There are 7 inoculated controls and 5 non-inoculated controls and the distributions of disease severity appeared independent of location.
# Application rates are expressed as kg of active material per hectare, and the mg per plot is based on the surface area of the bored and filled holes (0.000008559 Ha). The DC compounds were formulated immediately before application as follows: 1) the amount required to treat all six replicates was dissolved in 300 ml of acetone, 2) for each plot 50 ml of that solution was added to a graduated cylinder with 2 ml of 12.5% Triton X100 and the volume was raised to 500 ml with tap water. The resultant mix is the same as used in the standard greenhouse assays (10% acetone, 0.05%×100). The oxamyl treatments were prepared from Vydate 2 L formulated the same way. The 500 ml was placed in a watering can and the entire volume was evenly sprinkled over the surface of the plot. No runoff occurred and pooling, if any, was short lived. The final drench volume was 0.58 ml/cm^2, compared to 0.2 ml/cm^2 used in our greenhouse, however the microplots are much deeper so the drench volume applied per soil volume treated is roughly the same.
# Meloidogyne incognita eggs were harvested over a two week period and stored at approximately 5° C. until needed. A stock of 5.6 million vermiform eggs was adjusted to 9000/ml in 620 ml. One day after treatment, two holes were made in each plot about 7 cm apart and equidistant from the squash plants. Five ml of egg suspension was pipetted into each hole, which was then sealed and the plot lightly watered. A total of 90,000 vermiform eggs were added to each plot.
# The first root evaluation was at 28 DAT. The tops were cut off and weighed immediately in the field, and the roots were carefully dug out so as not to disturb the remaining plant.
Compound,oral LD50 in mice (mice) [mg/kg],"percent control (cyst number reduction) relative to the control blank treatment ([1]; 0.1 kg/ha, test d)","percent control (cyst number reduction) relative to the control blank treatment ([1]; 0.25 kg/ha, test d)","percent control (cyst number reduction) relative to the control blank treatment ([1]; 1 kg/ha, test a)","percent control (cyst number reduction) relative to the control blank treatment ([1]; 1 kg/ha, test b)","percent control (cyst number reduction) relative to the control blank treatment ([1]; 1 kg/ha, test c)","RG28 = % root galls at 28 days after treatment (Meloidogyne incognita; 2 kg ai/ha drench, squash) [%]","RG43 = % root galls at 43 days after treatment (Meloidogyne incognita; 2 kg ai/ha drench, squash) [%]",control of root galling compared with oxamyl at an equivalent rate (Meloidogyne incognita; 28 day time point),control of root galling compared with oxamyl at an equivalent rate (Meloidogyne incognita; 43 day time point)
"CCOP(=O)(NC(C)C)Oc1ccc(SC)c(C)c1 (stereo not shown) [Fenamiphos, fenamiphos, reference compound]",22.7,5^d percent,26^d percent,98^a percent,98^b percent,94^c percent,–,–,–,–
Brc1ccc(-c2cnc(-c3cccs3)o2)cc1 [compound 4776],–,–,–,–,–,–,19.0,26.8,statistically better than oxamyl,statistically better than oxamyl
